Test results: US20220387375A1, “TRPV1 ACTIVATION-MODULATING COMPLEX MIXTURES OF CANNABINOIDS AND/OR TERPENES” (GBS Global Biopharma, Inc., priority 2018, published 2022)

Target: T1, TRPV1 (Rattus norvegicus, UniProt O35433)
T1 construct: FLAG; expressed in transfected cells
Experiment: Bulk calcium assay (Fluo-4) in HEK-TRPV1 overexpressing cells
Format: cell-based
Details: for mean maximal Ca^2+ signal RFU achieved 0-180 s (SD), TRPV1: bulk calcium assay; for calcium fluxes: dosing concentrations of 30-50 μM; for initiation of a calcium flux: single dose 10 μM, 1 mM external Ca2+
Experimental: Cells were washed and incubated with 0.2 micromolar Fluo-4 for 30 minutes at 37° C. in a standard modified Ringer's solution of the following composition (in mM): NaCl 145, KCl 2.8, CsCl 10, CaCl2 10, MgCl2 2, glucose 10, Hepes·NaOH 10, pH 7.4, 330 mOsm. Cells were transferred to 96-well plates at 50,000 cells/well and stimulated as indicated. Calcium signals were acquired using a Flexstation 3 (Molecular Devices, Sunnydale, USA). Data was analyzed using SoftMax® Pro 5 (Molecular Devices). Where indicated, nomically calcium-free external conditions were achieved by the preparation of 0 mM CaCl2 Ringer solution containing 1 mM EGTA.
The cell culture system described in U.S. patent application Ser. No. 15/986,316 was used to test the TRPV1-mediated calcium response to various terpenes. The HEK293 cell line was stably transfected with the pcDNA6TR (Invitrogen, CA) plasmid (encoding the tetracycline-sensitive TREx repressor protein), and was maintained in DMEM+10% fetal bovine serum (inactivated at 55° C. for 1 h)+2 mM glutamine in humidified 5% CO2 atmosphere at 37° C. Selection pressure on the TRex 293 cells was maintained by continuous culture in 10 μg/ml Blasticidin (Sigma, St Louis, Mo.).
For production of TRex HEK293 cells with inducible expression of TRPV1, parental cells were electroporated with the rat TRPV1 cDNA in the pcDNA4TO vector and clonal cell lines were selected by limiting dilution in the presence of 400 μg/ml zeocin (Invitrogen, CA). TRPV1 expression was induced using 1 μg/ml tetracycline for 16 h at 37° C. Stable lines were screened for inducible protein expression using anti-FLAG Western blot, and inducible expression was confirmed.
Calcium responses mediated by TRPV1 were tested by calcium assay in the cell culture system. Cells were washed and incubated with 0.2 μM fluo-4 acetoxymethyl ester (“Fluo-4”) for 30 minutes at 37° C. in a standard modified Ringer's solution of the following composition (in mM): NaCl 145, KCl2.8, CsCl10, CaCl2 10, MgCl2 2, glucose 10, Hepes·NaOH 10, pH 7.4, 330 mOsm. Cells were transferred to 96-well plates at 50,000 cells/well and stimulated as indicated. The terpenes used were alpha-bisabool, alpha-pinene, myrcene, camphene, linalool, ocimene, humulene, beta-caryophyllene, beta-pinene, limonene, and nerolidol. The terpenes were diluted in DMSO and added to the wells to a final concentration of 10 μM. Vehicle (DMSO) alone was run as a negative control and subtracted from the terpene traces. Calcium signals were acquired using a Flexstation 3 (Molecular Devices, Sunnydale, USA). Data was analyzed using SoftMax® Pro 5 (Molecular Devices).
Calcium responses mediated by TRPA1, TRPM8, TRPV2, and TRPV1 were tested by calcium assay in the cell culture system. Cells were washed and incubated with 0.2 μM fluo-4 acetoxymethyl ester (“Fluo-4”) for 30 minutes at 37° C. in a standard modified Ringer's solution of the following composition (in mM): NaCl 145, KCl 2.8, CsCl 10, CaCl2 10, MgCl2 2, glucose 10, Hepes·NaOH 10, pH 7.4, 330 mOsm. Cells were transferred to 96-well plates at 50,000 cells/well and stimulated with 10 μM myrcene diluted in DMSO. Vehicle (DMSO) was used as a negative control. Vehicle traces were subtracted from the myrcene traces for each cell line.
As shown in FIGS. 16A-H, a variety of cannabinoids were capable of initiating Ca^2+ fluxes in HEK-TRPV1 overexpressing cells, except for cannabigerol and cannabinol. Comparative responses to a single dose (10 μM concentration) of a variety of cannabinoids were made in the presence of 1 mM external Ca^2+, which are population-based, or bulk Ca^2+, measurements with each trace representing averaged triplicates of 100,000 cells per sample. […] For each of the cannabinoid compounds, dose responses at the population level were performed. […] The lower limit of detectable calcium responses in this system varied from 10-100 nM (CBDV, CBGA) to 1-10 μM.

T1 sequence (O35433 whole entry): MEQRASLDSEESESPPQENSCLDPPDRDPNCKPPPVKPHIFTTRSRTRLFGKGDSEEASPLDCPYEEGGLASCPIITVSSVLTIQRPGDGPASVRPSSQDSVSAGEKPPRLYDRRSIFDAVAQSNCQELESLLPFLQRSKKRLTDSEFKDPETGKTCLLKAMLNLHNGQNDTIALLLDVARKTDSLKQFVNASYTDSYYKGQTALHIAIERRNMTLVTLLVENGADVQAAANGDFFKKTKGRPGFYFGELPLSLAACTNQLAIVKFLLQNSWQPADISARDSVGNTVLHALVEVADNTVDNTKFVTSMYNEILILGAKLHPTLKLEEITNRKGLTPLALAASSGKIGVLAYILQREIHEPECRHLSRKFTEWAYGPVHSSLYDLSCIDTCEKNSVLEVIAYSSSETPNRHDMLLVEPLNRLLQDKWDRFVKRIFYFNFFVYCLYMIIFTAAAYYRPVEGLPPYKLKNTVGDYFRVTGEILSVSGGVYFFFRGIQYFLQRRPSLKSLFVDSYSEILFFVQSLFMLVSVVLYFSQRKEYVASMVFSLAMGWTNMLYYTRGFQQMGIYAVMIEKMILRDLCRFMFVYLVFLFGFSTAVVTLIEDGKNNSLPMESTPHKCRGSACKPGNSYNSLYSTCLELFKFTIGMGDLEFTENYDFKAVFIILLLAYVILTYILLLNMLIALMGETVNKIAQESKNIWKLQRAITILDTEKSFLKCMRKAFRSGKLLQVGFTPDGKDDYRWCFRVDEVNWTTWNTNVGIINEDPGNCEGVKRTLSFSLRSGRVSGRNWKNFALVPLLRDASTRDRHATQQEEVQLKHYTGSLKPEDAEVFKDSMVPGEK

Row | Compound | mean maximal Ca^2+ signal RFU achieved 0-180 s (SD), TRPV1 | calcium fluxes | initiation of a calcium flux
1 | CCCCCc1cc(O)c(C/C=C(\C)CCC=C(C)C)c(O)c1 [CBG, Cannabigerol] | 0.41 (0.04) RFU | small calcium fluxes | did not initiate a calcium flux
2 | CCCCCc1cc(O)c2c(c1)OC(C)(C)c1ccc(C)cc1-2 [CBN, Cannabinol] | 0.89 (0.08) RFU | small and transient calcium transient fluxes | did not initiate a calcium flux
3 | C=C(C)[C@@H]1CCC(C)=C[C@H]1c1c(O)cc(CCCCC)cc1O [CBD, Cannabidiol] | 11.88 (0.23) RFU |  | 
4 | C=C(C)[C@@H]1CCC(C)=C[C@H]1c1c(O)cc(CCC)cc1O [CBDV, Cannabidivarin] | 6.51 (0.07) RFU |  | 
